Assays:
5-HT2C receptor = target: T1, 5-HT2C receptor (Homo sapiens, UniProt P28335); experiment: G alpha q-GTPγ[35S] binding agonist activity assay (ISPA), 5-HT2C; format: biochemical; parameters: expressed in transfected cells; host or cells: AV12 cells
T1 sequence (P28335 33-458): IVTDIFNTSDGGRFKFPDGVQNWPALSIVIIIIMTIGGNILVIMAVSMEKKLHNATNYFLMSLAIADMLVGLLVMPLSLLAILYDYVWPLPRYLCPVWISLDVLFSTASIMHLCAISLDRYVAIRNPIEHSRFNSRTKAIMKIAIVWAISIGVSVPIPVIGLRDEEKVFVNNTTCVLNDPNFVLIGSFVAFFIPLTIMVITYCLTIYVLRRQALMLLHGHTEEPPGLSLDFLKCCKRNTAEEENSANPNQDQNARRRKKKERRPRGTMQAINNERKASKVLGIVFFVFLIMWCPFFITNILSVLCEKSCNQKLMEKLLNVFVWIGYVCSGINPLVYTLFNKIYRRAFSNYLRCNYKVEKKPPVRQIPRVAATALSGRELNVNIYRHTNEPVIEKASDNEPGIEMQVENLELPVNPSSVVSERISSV

male Long-Evans rats [1] = experiment: Acute feeding assay with a selective 5-HT2C receptor antagonist; format: in vivo, rat; conditions: antagonist 3 mg/Kg subcutaneous about 15 min. before oral test compound
Excerpt: (§1) Animals: Obtain male Long-Evans rats (Harlan Sprague-Dawley, Indianapolis, Ind.) that are approximately one hundred-days old and have been maintained on a calorie rich diet since weaning (TD 95217, 40% calories from fat; Teklad, Madison, Wis.). House the rats individually with a 12 hr.:12 hr. light:dark cycle (lights on from about 22:00 hr. to about 10:00 hr.) and maintain rats on the same diet (TD 95217) with free access to water, for about 1-2 weeks to acclimate the rats to the environment. Dose rats orally with vehicle (10% acacia with 0.15% saccharin in water) once daily for at least 1 day (typically 1-2 days) to acclimate the rats to the procedures. Randomize the rats into groups so each group has similar mean body weights.
Acute Feeding Assay with a selective 5-HT2C receptor antagonist: The above calorimetric acute feeding assay is conducted with the following modifications. Open circuit calorimetry systems are not used and only the 24 hr. periodic food intake and body weight are measured. […]

D2 dopaminergic receptor = D2 dopaminergic receptor (Homo sapiens, UniProt P14416); experiment: Radioligand receptor binding assay, D2 dopaminergic
[2] = target: alpha 2 adrenergic receptor; experiment: Radioligand receptor binding assay, alpha 2 adrenergic
male Long-Evans rats [3] = experiment: Chronic feeding assay; format: in vivo, rat
Excerpt: as §1
Chronic Feeding Assay: At between approximately 8:00 hr. and 10:00 hr. on day one of the assay, weigh and orally dose each rat with vehicle or test compound and return the animal to its home cage, with free access to food (pre-weighed) and water. For each of days 2-15, at between approximately 8:00 hr. and 10:00 hr., measure rat body weight and the weight of food consumed in the last 24 hr. period, and administer daily oral dose of test compound or vehicle. On days −2 and 15 measure total fat mass and lean mass by nuclear magnetic resonance (NMR) using an EchoMRI™ system (Echo Medical Systems, Houston Tex.). (See Frank C. Tinsley, Gersh Z. Taicher, and Mark L. Heiman, “Evaluation of a New Quantitative Magnetic Resonance (QMR) Method for Mouse Whole Body Composition Analysis”, Obesity Research, submitted May 1, 2003.)

male NIH Swiss mice = experiment: Nestlet shredding; format: in vivo, mouse; conditions: 30 min.
Excerpt: Mice naturally will construct nests of material available in their living environment. Since this behavior is obsessive in nature, it has been used to model OCD (Mia Li, Denise Morrow and Jeffrey M. Witkin, “Decreases in nestlet shredding of mice by serotonin uptake inhibitors: comparison with marble burying”, Psychopharmacology, submitted Jul. 14, 2003). House experimentally-naïve male, NIH Swiss mice (Harlan Sprague-Dawley, Indianapolis, Ind.) weighing between 28-35 g in groups of 12 for at least three days prior to testing in a vivarium with a 12 hr. light/dark cycle. Conduct experiments during the light cycle in an experimental room with normal overhead fluorescent lighting. Dose mice with vehicle or test compound and after a specified pretreatment interval (generally 30 min.), place the mice individually in a 17×28×12 cm high plastic tub with about 5 mm sawdust shavings on the floor along with a pre-weighed multi-ply gauze pad (51 mm square). After 30 min., weigh the remainder of the gauze pad not removed by the mouse. Determine the weight of the gauze used for nestlet construction by subtraction. Compare the results for test compound treated mice to the results for vehicle control treated mice with Dunnett's test.
Clinically effective OCD treatment standard compounds suppress nestlet shredding at doses that are devoid of motor-impairing effects as measured by the rotorod test. […]

[4] = daily oral dose days 1-15, compared to control animals

D2 dopaminergic receptor, sequence (P14416 whole entry): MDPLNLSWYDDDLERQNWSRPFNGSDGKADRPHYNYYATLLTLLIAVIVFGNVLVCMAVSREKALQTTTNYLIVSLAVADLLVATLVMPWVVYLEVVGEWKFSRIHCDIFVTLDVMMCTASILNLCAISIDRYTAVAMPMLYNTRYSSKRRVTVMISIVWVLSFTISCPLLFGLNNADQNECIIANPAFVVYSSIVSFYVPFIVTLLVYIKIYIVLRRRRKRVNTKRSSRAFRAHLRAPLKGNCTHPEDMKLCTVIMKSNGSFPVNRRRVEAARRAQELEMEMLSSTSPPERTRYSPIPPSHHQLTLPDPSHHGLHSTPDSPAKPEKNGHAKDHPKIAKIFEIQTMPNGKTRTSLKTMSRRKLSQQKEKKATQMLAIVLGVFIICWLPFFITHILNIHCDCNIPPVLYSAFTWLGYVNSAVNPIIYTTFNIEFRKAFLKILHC

`FC(F)(F)CNc1c(Cl)ccc2c1CCNCC2.O=C(O)CCC(=O)O` [Example 2, 7-Chloro-6-(2,2,2-trifluoroethylamino)-2,3,4,5-tetrahydro-1H-benzo[d]azepine Succinic Acid Salt] was tested, and the EC50 (5-HT2C receptor) was 11.8 ± 2.8 nM, the “AUC 2C/2A Selectivity Ratio” value (5-HT2C receptor; ratio of AUCs normalized to 5-HT, 5-HT2C receptor/5-HT2A receptor) was 2.2 and the “AUC 2C/2B Selectivity Ratio” value (5-HT2C receptor; ratio of AUCs normalized to 5-HT, 5-HT2C receptor/5-HT2B receptor) was 3.8. The Emax (5-HT2C receptor; read-out: 5HT2C Emax) was 106 ± 2.8%, the “effect on 24 hr. food intake after pre-administration of the 5-HT2C receptor antagonist” value (male Long-Evans rats [1]) was “blocked” and the IC50 (D2 dopaminergic receptor) was > 3000 nM. For the same molecule, the IC50 [2] was > 3000 nM, the lean body mass (male Long-Evans rats [3]; NMR, days -2 and 15) was “not changed” and the “cumulative body weight change” value (male Long-Evans rats [3]; [4]) was “significantly decrease”. For the same molecule, the cumulative food intake (male Long-Evans rats [3]; [4]) was “significantly decrease”, the “source of the decrease in body weight (fat mass by NMR)” value (male Long-Evans rats [3]; days -2 and 15) was “loss of adipose tissue” and the “nestlet shredding (relative to motor effects, rotorod test)” value (male NIH Swiss mice) was “suppress nestlet shredding at doses that were devoid of motor-impairing effects”.

Reference: US20060264418A1, “6-(2,2,2-Trifluoroethylamino-7-chloro-2,3,4,5-tetrahydro-1h-benzo[d] azephine as a 5-ht2c receptor agonist” (priority 2003, published 2006)
